One series addresses T1, CDK2/Cyclin A (Homo sapiens, UniProt P24941).
T1 construct: made in house; host or cells: CDK2: insect cells (baculovirus); cyclin A: E. coli
Description: Inhibition of CDK2/Cyclin A retinoblastoma kinase activity (apparent Ki). The format is biochemical. The procedure, abridged: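 Cyclin A complex (proteolyzed cyclin) purified by gel filtration; enzyme-initiated reactions ran 20 min at 30 °C, transferring radiolabelled phosphate from [32P]/[33P]ATP onto a protein substrate, stopped with EDTA and quantified by phosphorimager.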

Series [1] can be described thus: Measurement of kinetic solubility. Particulars: pH 6.5, aqueous buffer, kinetic from dmso stock. As to the method: Kinetic solubility was determined with a […] stock solution from the compound(s) of interest. […] Samples and standards were then centrifuged and an aliquot was removed for HPLC analysis. Samples and standards were analyzed by HPLC and a final concentration for the sample was determined based on a one-point calibration curve from the corresponding standard. Results were reported as μg's/mL.

From US20050090529A1, “3,5 Disubstituted indazole compounds with nitrogen-bearing 5-membered heterocycles, pharmaceutical compositions, and methods for mediating or inhibiting cell proliferation” (PFIZER INC, priority 2003, published 2005) come the findings set out here.

Values after ≈ are worked out from the molar mass of the structure shown. Read-outs that look alike come from different tables or passages of the source.

Regarding `CCNCc1cncc(-c2ccc3[nH]nc(-c4ncc(C(=O)NCCN(C)C)[nH]4)c3c2)c1C` [Example 54, N-[2-(dimethylamino)ethyl]-2-(5-{5-[(ethylamino)methyl]-4-methylpyridin-3-yl}-1H-indazol-3-yl)-1H-imidazole-5-carboxamide], the Ki on CDK2/Cyclin A (read-out: CDK2 Ki) is under 0.05 µM. Also, the solubility (usually how much of the substance goes into solution per volume) in series [1] (100 mM sodium phosphate buffer) was over 0.12 mg/mL.

For the compound `CCNCc1cncc(-c2ccc3[nH]nc(-c4ncc(C(=O)N5CCOCC5)[nH]4)c3c2)c1C` [Example 55, N-[(4-methyl-5-{3-[5-(morpholin-4-ylcarbonyl)-1H-imidazol-2-yl]-1H-indazol-5-yl}pyridin-3-yl)methyl]ethanamine], the Ki at CDK2/Cyclin A (read-out: CDK2 Ki) is under 0.05 µM. The compound also showed a solubility in series [1] (100 mM sodium phosphate buffer) of over 0.12 mg/mL.

For the compound `CCNCc1cncc(-c2ccc3[nH]nc(-c4ncc(C(=O)N5CCCC5)[nH]4)c3c2)c1C` [Example 61, N-[(4-methyl-5-{3-[5-(pyrrolidin-1-ylcarbonyl)-1H-imidazol-2-yl]-1H-indazol-5-yl}pyridin-3-yl)methyl]ethanamine], the Ki on CDK2/Cyclin A (read-out: CDK2 Ki) was under 0.05 µM. In addition, the solubility in series [1] (100 mM sodium phosphate buffer) is 0.02 to 0.12 mg/mL (≈ 46.6 to 279 µM).

For the compound `CCNCc1cncc(-c2ccc3[nH]nc(-c4nc(C(=O)N5CCCCC5)c[nH]4)c3c2)c1C` [Example 62, N-[(4-methyl-5-{3-[5-(piperidin-1-ylcarbonyl)-1H-imidazol-2-yl]-1H-indazol-5-yl}pyridin-3-yl)methyl]ethanamine], the Ki on CDK2/Cyclin A (read-out: CDK2 Ki) is under 0.05 µM. This compound returned a solubility in series [1] (100 mM sodium phosphate buffer) of over 0.12 mg/mL.

Regarding `CCNCc1cncc(-c2ccc3[nH]nc(-c4nc(C(=O)NCC)c[nH]4)c3c2)c1C` [Example 63, N-ethyl-2-(5-{5-[(ethylamino)methyl]-4-methylpyridin-3-yl}-1H-indazol-3-yl)-1H-imidazole-5-carboxamide], at CDK2/Cyclin A (read-out: CDK2 Ki), the Ki is under 0.05 µM. The compound further displayed a solubility in series [1] (100 mM sodium phosphate buffer) of over 0.12 mg/mL.

As to `CCNCc1cncc(-c2ccc3[nH]nc(-c4nc(C(=O)NC(C)C)c[nH]4)c3c2)c1C` [Example 64, 2-(5-{5-[(ethylamino)methyl]-4-methylpyridin-3-yl}-1H-indazol-3-yl)-N-isopropyl-1H-imidazole-5-carboxamide], at CDK2/Cyclin A (read-out: CDK2 Ki), the Ki was under 0.05 µM. In series [1] (100 mM sodium phosphate buffer), this compound gave a solubility of over 0.12 mg/mL.

For the compound `CCNCc1cncc(-c2ccc3[nH]nc(-c4nc(C(=O)NCCOC)c[nH]4)c3c2)c1C` [Example 65, 2-(5-{5-[(ethylamino)methyl]-4-methylpyridin-3-yl}-1H-indazol-3-yl)-N-(2-methoxyethyl)-1H-imidazole-5-carboxamide], at CDK2/Cyclin A, the Ki is under 0.05 µM. For the same compound, in series [1] (100 mM sodium phosphate buffer), the solubility is over 0.12 mg/mL.

For the compound `CCNCc1cncc(-c2ccc3[nH]nc(-c4ncc(C(=O)N5CCN(Cc6ccccc6)CC5)[nH]4)c3c2)c1C` [Example 66, N-{[5-(3-{5-[(4-benzylpiperazin-1-yl)carbonyl]-1H-imidazol-2-yl}-1H-indazol-5-yl)-4-methylpyridin-3-yl]methyl}ethanamine], the Ki at CDK2/Cyclin A (read-out: CDK2 Ki) is under 0.05 µM. This compound gave a solubility in series [1] of over 0.12 mg/mL.

On to `CCNCc1cncc(-c2ccc3[nH]nc(-c4ncc(C(=O)N5CC=C(c6ccccc6)CC5)[nH]4)c3c2)c1C` [Example 67, N-{[4-methyl-5-(3-{5-[(4-phenyl-3,6-dihydropyridin-1(2H)-yl)carbonyl]-1H-imidazol-2-yl}-1H-indazol-5-yl)pyridin-3-yl]methyl}ethanamine], for which the Ki on CDK2/Cyclin A (read-out: CDK2 Ki) is under 0.05 µM. The same compound gave a solubility in series [1] (100 mM sodium phosphate buffer) of 0.02 to 0.12 mg/mL (≈ 38.6 to 232 µM).

Take `CCNCc1cncc(-c2ccc3[nH]nc(-c4ncc(C(=O)N5Cc6ccccc6C5)[nH]4)c3c2)c1C` [Example 68, N-[(5-{3-[5-(1,3-dihydro-2H-isoindol-2-ylcarbonyl)-1H-imidazol-2-yl]-1H-indazol-5-yl}-4-methylpyridin-3-yl)methyl]ethanamine]: the Ki on CDK2/Cyclin A (read-out: CDK2 Ki) is under 0.05 µM. This compound also registered a solubility in series [1] (100 mM sodium phosphate buffer) of under 0.02 mg/mL.

`CCNCc1cncc(-c2ccc3[nH]nc(-c4ncc(C(=O)N5CCN(c6ccc(F)cc6F)CC5)[nH]4)c3c2)c1C` [Example 69, N-({5-[3-(5-{[4-(2,4-difluorophenyl)piperazin-1-yl]carbonyl}-1H-imidazol-2-yl)-1H-indazol-5-yl]-4-methylpyridin-3-yl}methyl)ethanamine]: the Ki at CDK2/Cyclin A (read-out: CDK2 Ki) is under 0.05 µM. In series [1] (100 mM sodium phosphate buffer), this compound showed a solubility of 0.02 to 0.12 mg/mL (≈ 35.9 to 216 µM).

With `CCNCc1cncc(-c2ccc3[nH]nc(-c4ncc(C(=O)N5CCC6CCCCC6C5)[nH]4)c3c2)c1C` (stereo not shown) [Example 71, N-[(4-methyl-5-{3-[5-(octahydroisoquinolin-2(1H)-ylcarbonyl)-1H-imidazol-2-yl]-1H-indazol-5-yl}pyridin-3-yl)methyl]ethanamine], the Ki at CDK2/Cyclin A (read-out: CDK2 Ki) is under 0.05 µM. Also, the solubility in series [1] (100 mM sodium phosphate buffer) was in the range of 0.02 to 0.12 mg/mL (≈ 40.2 to 241 µM).

Regarding `CCNCc1cncc(-c2ccc3[nH]nc(-c4ncc(C(=O)NC5C6CC7CC(C6)CC5C7)[nH]4)c3c2)c1C` (stereo not shown) [Example 72, N-2-adamantyl-2-(5-{5-[(ethylamino)methyl]-4-methylpyridin-3-yl}-1H-indazol-3-yl)-1H-imidazole-5-carboxamide], the Ki at CDK2/Cyclin A (read-out: CDK2 Ki) is under 0.05 µM. Further, the solubility in series [1] (100 mM sodium phosphate buffer) was under 0.02 mg/mL.

As for `CCNCc1cncc(-c2ccc3[nH]nc(-c4nc(C(=O)N5CCCCCC5)c[nH]4)c3c2)c1C` [Example 74, N-[(5-{3-[5-(azepan-1-ylcarbonyl)-1H-imidazol-2-yl]-1H-indazol-5-yl}-4-methylpyridin-3-yl)methyl]ethanamine], at CDK2/Cyclin A (read-out: CDK2 Ki), the Ki was under 0.05 µM. The same compound registered a solubility in series [1] (100 mM sodium phosphate buffer) of over 0.12 mg/mL.

As to `CCNCc1cncc(-c2ccc3[nH]nc(-c4ncc(C(=O)N[C@H]5CCCCNC5=O)[nH]4)c3c2)c1C` [Example 75, 2-(5-{5-[(ethylamino)methyl]-4-methylpyridin-3-yl}-1H-indazol-3-yl)-N-[(3S)-2-oxoazepan-3-yl]-1H-imidazole-5-carboxamide], on CDK2/Cyclin A (read-out: CDK2 Ki), the Ki is under 0.05 µM. Besides, the solubility in series [1] (100 mM sodium phosphate buffer) was over 0.12 mg/mL.

Consider `CCNCc1cncc(-c2ccc3[nH]nc(-c4nc(C(=O)NC5CCNCC5)c[nH]4)c3c2)c1C` [Example 76, 2-(5-{5-[(ethylamino)methyl]-4-methylpyridin-3-yl}-1H-indazol-3-yl)-N-piperidin-4-yl-1H-imidazole-5-carboxamide], for which, at CDK2/Cyclin A (read-out: CDK2 Ki), the Ki lay in the range of 0.05 to 0.2 µM. In series [1] (100 mM sodium phosphate buffer), this compound came in with a solubility of over 0.12 mg/mL.

For the compound `CCNCc1cncc(-c2ccc3[nH]nc(-c4nc(C(=O)NC5CC6CCC(C5)N6)c[nH]4)c3c2)c1C` (stereo not shown) [Example 77, N-8-azabicyclo[3.2.1]oct-3-yl-2-(5-{5-[(ethylamino)methyl]-4-methylpyridin-3-yl}-1H-indazol-3-yl)-1H-imidazole-5-carboxamide], the Ki on CDK2/Cyclin A (read-out: CDK2 Ki) was over 0.2 µM. The solubility in series [1] (100 mM sodium phosphate buffer) is over 0.12 mg/mL.

Consider `CCNCc1cncc(-c2ccc3[nH]nc(-c4ncc(C(=O)N5CCN(Cc6ccccn6)CC5)[nH]4)c3c2)c1C` [Example 83, N-({4-methyl-5-[3-(5-{[4-(pyridin-2-ylmethyl)piperazin-1-yl]carbonyl}-1H-imidazol-2-yl)-1H-indazol-5-yl]pyridin-3-yl}methyl)ethanamine], for which, on CDK2/Cyclin A (read-out: CDK2 Ki), the Ki is under 0.05 µM. In series [1] (100 mM sodium phosphate buffer), the solubility is over 0.12 mg/mL.

Take `CCNCc1cncc(-c2ccc3[nH]nc(-c4ncc(C(=O)N5CCC(Cc6ncccn6)CC5)[nH]4)c3c2)c1C` [Example 85, N-({4-methyl-5-[3-(5-{[4-(pyrimidin-2-ylmethyl)piperidin-1-yl]carbonyl}-1H-imidazol-2-yl)-1H-indazol-5-yl]pyridin-3-yl}methyl)ethanamine]: at CDK2/Cyclin A (read-out: CDK2 Ki), the Ki was under 0.05 µM. In series [1] (100 mM sodium phosphate buffer), the solubility is over 0.12 mg/mL.

For the compound `CCNCc1cncc(-c2ccc3[nH]nc(-c4nc(C(=O)O)c[nH]4)c3c2)c1C` [Example 86, 2-(5-{5-[(ethylamino)methyl]-4-methylpyridin-3-yl}-1H-indazol-3-yl)-1H-imidazole-5-carboxylic acid], the Ki on CDK2/Cyclin A (read-out: CDK2 Ki) lay in the range of 0.05 to 0.2 µM. In series [1] (100 mM sodium phosphate buffer), this compound displayed a solubility of over 0.12 mg/mL.

Turning to `CCNCc1cncc(-c2ccc3[nH]nc(-c4cnco4)c3c2)c1C` [Example 87, N-({4-methyl-5-[3-(1,3-oxazol-5-yl)-1H-indazol-5-yl]pyridin-3-yl}methyl)ethanamine], the Ki at CDK2/Cyclin A (read-out: CDK2 Ki) lay within 0.05 to 0.2 µM. The same compound yielded a solubility in series [1] (100 mM sodium phosphate buffer) of over 0.12 mg/mL.

With `CCNCc1cncc(-c2ccc3[nH]nc(-c4cnc[nH]4)c3c2)c1C` [Example 90, N-({5-[3-(1H-imidazol-5-yl)-1H-indazol-5-yl]-4-methylpyridin-3-yl}methyl)ethanamine], the Ki at CDK2/Cyclin A (read-out: CDK2 Ki) was under 0.05 µM. In addition, the solubility in series [1] (100 mM sodium phosphate buffer) is over 0.12 mg/mL.

On to `c1c[nH]c(-c2n[nH]c3ccc(-c4cncc5[nH]ccc45)cc23)n1` [Example 94, 3-(1H-Imidazol-2-yl)-5-(1H-pyrrolo[2,3-c]pyridin-4-yl)-1H-indazole], for which the Ki at CDK2/Cyclin A (read-out: CDK2 Ki) was under 0.05 µM. Besides, the solubility in series [1] (100 mM sodium phosphate buffer) was 0.02 to 0.12 mg/mL (≈ 66.6 to 400 µM).

Take `c1ncc(-c2n[nH]c3ccc(-c4cncc5[nH]ccc45)cc23)[nH]1` [Example 95, 3-(3H-Imidazol-4-yl)-5-(1H-pyrrolo[2,3-c]pyridin-4-yl)-1H-indazole]: the Ki on CDK2/Cyclin A (read-out: CDK2 Ki) was under 0.05 µM. For the same compound, the solubility in series [1] (100 mM sodium phosphate buffer) lay within 0.02 to 0.12 mg/mL (≈ 66.6 to 400 µM).

In the case of `CCNCc1cncc(-c2ccc3[nH]nc(-c4cnc(-c5ccncc5)[nH]4)c3c2)c1C` [Example 96, Ethyl-{4-methyl-5-[3-(2-pyridin-4-yl-3H-imidazol-4-yl)-1H-indazol-5-yl]-pyridin-3-ylmethyl}-amine], the Ki on CDK2/Cyclin A (read-out: CDK2 Ki) lay in the range of 0.05 to 0.2 µM. In series [1] (100 mM sodium phosphate buffer), this compound showed a solubility of over 0.12 mg/mL.

For the compound `CCNCc1cncc(-c2ccc3[nH]nc(C(N)=O)c3c2)c1C` [Example 97, 5-(5-Ethylaminomethyl-4-methyl-pyridin-3-yl)-1H-indazole-3-carboxylic acid amide], on CDK2/Cyclin A (read-out: CDK2 Ki), the Ki lay in the range of 0.05 to 0.2 µM. The solubility in series [1] (100 mM sodium phosphate buffer) was over 0.12 mg/mL.
